Results published in ChEMBL document CHEMBL3407446, “Effect of new hybrids based on 5,16-pregnadiene scaffold linked to an anti-inflammatory drug on the growth of a human astrocytoma cell line (U373)” (Eur J Med Chem, 2015).
Activity calls are given as the source filed them. No cut-off for these calls is given here.

Legend:
U-373MG ATCC [1] = experiment: Antiproliferative activity against human U373MG cells assessed as effect on cell number at 1 nM to 10 uM incubated for 1 to 6 days by trypan blue dye exclusion dye based inverted microscopy; type: functional
U-373MG ATCC [2] = experiment: Antiproliferative activity against human U373MG cells assessed reduction in cell number at 1 nM and 10 nM incubated for 1 to 6 days by trypan blue dye exclusion dye based inverted microscopy; type: functional
U-373MG ATCC [3] = experiment: Antiproliferative activity against human U373MG cells assessed reduction in cell number at 10 uM incubated for 1 to 6 days by trypan blue dye exclusion dye based inverted microscopy; type: functional
[4] = Antiproliferative activity against human U373MG cells assessed reduction in cell number at 10 uM incubated for 6 days by trypan blue dye exclusion dye based inverted microscopy; type: functional, U-373MG ATCC; conditions: U373 MG, 144 h
U-373MG ATCC [5] = experiment: Induction of cell proliferation of human U373MG cells at 1 nM and 10 nM incubated for 1 to 6 days by trypan blue dye exclusion dye based inverted microscopy; type: functional
U-373MG ATCC [6] = experiment: Antiproliferative activity against human U373MG cells assessed reduction in cell number at 1 nM and 10 uM incubated for 1 to 6 days by trypan blue dye exclusion dye based inverted microscopy; type: functional
U-373MG ATCC [7] = experiment: Antiproliferative activity against human U373MG cells assessed reduction in cell number at 1 nM and 5 uM incubated for 1 to 6 days by trypan blue dye exclusion dye based inverted microscopy; type: functional

Row | SMILES | Activity (U-373MG ATCC [1]) | IC50 [4] [µM] | also measured
1 | CC1=C(CC(=O)O)c2cc(F)ccc2/C1=C\c1ccc([S+](C)[O-])cc1 (stereo not drawn) | Active | – | Activity (U-373MG ATCC [2]): Active
2 | CC(=O)C1=CC[C@H]2[C@@H]3CC(=O)C4=C[C@@H](OC(=O)[C@H](C)c5ccc(CC(C)C)cc5)CC[C@]4(C)[C@H]3CC[C@]12C | Active | – | Activity (U-373MG ATCC [3]): Active
3 | COc1ccc2c(c1)c(CC(=O)O)c(C)n2C(=O)c1ccc(Cl)cc1 | inactive | – | –
4 | CC(=O)C1=CC[C@H]2[C@@H]3CC(=O)C4=C[C@@H](OC(=O)[C@H](C)c5cccc(C(=O)c6ccccc6)c5)CC[C@]4(C)[C@H]3CC[C@]12C | inactive | – | –
5 | COc1ccc2c(c1)c(CC(=O)O[C@@H]1C=C3C(=O)C[C@@H]4[C@H](CC[C@]5(C)C(C(C)=O)=CC[C@@H]45)[C@@]3(C)CC1)c(C)n2C(=O)c1ccc(Cl)cc1 | Active | 0.016 | Activity (U-373MG ATCC [3]): Active
6 | COc1ccc2cc([C@@H](C)C(=O)O[C@@H]3C=C4C(=O)C[C@@H]5[C@H](CC[C@]6(C)C(C(C)=O)=CC[C@@H]56)[C@@]4(C)CC3)ccc2c1 | Active | 17.7 | Activity (U-373MG ATCC [5]): Active; Activity (U-373MG ATCC [6]): Active
7 | CC(=O)C1=CC[C@H]2[C@@H]3CC(=O)C4=C[C@@H](O)CC[C@]4(C)[C@H]3CC[C@]12C | – | 3.02 | Activity (U-373MG ATCC [7]): Active
8 | COc1ccc2cc([C@H](C)C(=O)O)ccc2c1 | inactive | – | –
9 | CC(C)Cc1ccc(C(C)C(=O)O)cc1 (stereo not drawn) | inactive | – | –
10 | CC(C(=O)O)c1cccc(C(=O)c2ccccc2)c1 (stereo not drawn) | inactive | – | –
